Data reported in patent EP0292169B1, “Substrates for B-galactosidase” (Bayer Corporation, priority 1987, dated 1988).
Read-outs that look alike come from different tables or passages of the source.

What was measured:
[1] = Molar absorptivity of phenolic precursors of substrates; format: physicochemical
Experimental: The molar absorptivity (εmax) of the phenolic precursors of several substrates of this invention were measured and calculated according to the following formula: [formula] wherein A is the absorbance; b is the path length through the sample; and c is the concentration of solute.
The molar absorptivity of the phenolic precursor of ONPG, the most commonly used prior art substrate for β-galactosidase was likewise measured and calculated for comparative purposes. The aim was to identify phenolic precursors which would provide enhanced molar absorptivity to that of ONPG.

[2] = target: T1, β-galactosidase (Escherichia coli, UniProt P00722); format: biochemical; conditions: antibody titration curve, Fig. 3
[3] = target: T1, β-galactosidase; format: biochemical; conditions: for Km / V max: calculated from experimental data of Figs. 1 and 2
[4] = Stability in aqueous environment; format: physicochemical
[5] = target: T1, β-galactosidase; conditions: available from the literature, cited from earlier work

T1 sequence (P00722 2-1024): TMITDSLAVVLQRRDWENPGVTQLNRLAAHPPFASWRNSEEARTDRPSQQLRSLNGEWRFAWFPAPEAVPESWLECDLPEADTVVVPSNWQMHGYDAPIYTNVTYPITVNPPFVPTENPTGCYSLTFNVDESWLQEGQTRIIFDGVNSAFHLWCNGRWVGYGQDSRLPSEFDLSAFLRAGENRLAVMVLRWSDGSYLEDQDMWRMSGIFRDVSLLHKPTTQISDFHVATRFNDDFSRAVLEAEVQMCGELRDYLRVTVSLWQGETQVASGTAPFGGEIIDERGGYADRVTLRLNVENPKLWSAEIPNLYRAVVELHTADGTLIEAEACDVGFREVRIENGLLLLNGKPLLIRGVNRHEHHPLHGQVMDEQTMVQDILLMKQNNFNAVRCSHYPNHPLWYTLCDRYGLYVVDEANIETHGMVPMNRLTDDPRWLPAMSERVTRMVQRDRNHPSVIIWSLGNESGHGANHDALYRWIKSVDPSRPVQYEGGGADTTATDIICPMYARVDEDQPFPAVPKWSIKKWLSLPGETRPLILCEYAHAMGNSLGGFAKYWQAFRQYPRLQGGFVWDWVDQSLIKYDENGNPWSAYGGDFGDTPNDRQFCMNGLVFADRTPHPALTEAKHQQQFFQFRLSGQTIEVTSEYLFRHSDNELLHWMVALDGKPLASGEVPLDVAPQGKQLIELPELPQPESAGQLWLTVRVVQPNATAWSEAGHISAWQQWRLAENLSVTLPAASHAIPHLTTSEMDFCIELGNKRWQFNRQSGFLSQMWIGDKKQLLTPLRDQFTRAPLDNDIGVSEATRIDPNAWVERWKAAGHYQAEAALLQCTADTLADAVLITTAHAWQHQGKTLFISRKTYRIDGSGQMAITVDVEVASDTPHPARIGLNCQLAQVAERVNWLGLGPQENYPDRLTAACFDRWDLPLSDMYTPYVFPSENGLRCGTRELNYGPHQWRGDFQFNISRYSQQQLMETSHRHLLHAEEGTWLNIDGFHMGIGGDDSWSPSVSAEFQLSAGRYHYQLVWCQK

Compound: Cc1cc(C2(c3cc(C)c(O)c(Br)c3)OS(=O)(=O)c3ccccc32)cc(Br)c1O [bromocresol purple]
- Molar Absorptivity (εmax) ([1]; 585 nm, pH 8.5): 50.7 (585 nm, pH 8.5)

Compound: Cc1cc(O)ccc1C1(c2ccc(O)cc2C)OS(=O)(=O)c2ccccc21 [metacresol purple]
- Molar Absorptivity (εmax) ([1]; 575 nm, pH 8.5): 8.4 (575 nm, pH 8.5)

Compound: O=[N+]([O-])c1cc(Cl)c(O)c(Cl)c1 [2,6-dichloro-4-nitrophenol]
- Molar Absorptivity (εmax) ([1]; 405 nm, pH 7.5): 15.9 (405 nm, pH 7.5)

Compound: O=[N+]([O-])c1ccc(O[C@@H]2O[C@H](CO)[C@H](O)[C@H](O)[C@H]2O)c(Cl)c1 [CLNPG, 2-chloro-4-nitrophenyl-β-D-galactopyranoside]
- increase in assay sensitivity over ONPG [2]: four-fold
- V max relative to that of ONPG ([3]; CLNPG versus ONPG): at least four times
- Km [3]: 200 µM
- V max [3]: 0.13 ΔA/Min

Compound: O=[N+]([O-])c1ccc(O[C@@H]2O[C@H](CO)[C@H](O)[C@H](O)[C@H]2O)c([N+](=O)[O-])c1 [DNPG, 2,4-dinitro-phenyl-β-D-galactopyranoside]
- stability in aqueous environment [4]: unstable
- Km [5]: 220 µM
- V max [5]: 0.13 ΔA/Min

Compound: O=[N+]([O-])c1ccc(O)c(Cl)c1 [CLNP, 2-chloro-4-nitrophenol]
- Molar Absorptivity (εmax) ([1]; 405 nm, pH 7.5): 16.9 (405 nm, pH 7.5)

Compound: O=[N+]([O-])c1ccc(O)c([N+](=O)[O-])c1 [DNP, 2,4-dinitro phenol]
- Molar Absorptivity (εmax) ([1]; pH 7.5): 10.7 (405 nm, pH 7.5)

Compound: bromocresol purple-β-D-galactopyranoside [BCPG, reference compound]
- V max [3]: 0.11 ΔA/Min
- Km ([3]; read-out: Km): 8000 µM

Compound: O=[N+]([O-])c1ccccc1O[C@@H]1O[C@H](CO)[C@H](O)[C@H](O)[C@H]1O [ONPG, O-nitrophenyl-β-D-galactopyranoside]
- V max [5]: 0.03 ΔA/Min
- Km ([5]; read-out: Km): 170 µM

Compound: O=[N+]([O-])c1ccccc1O [ONP, orthonitro phenol, reference compound]
- Molar Absorptivity (εmax) ([1]; 405 nm, pH 7.5): 3.0 (405 nm, pH 7.5)

Compound: O=[N+]([O-])c1cccc(Cl)c1O [2-chloro-6-nitrophenol]
- Molar Absorptivity (εmax) ([1]; 405 nm, pH 7.5): 4.6 (405 nm, pH 7.5)
